Experimental data from PMC8238948, “Potent inhibitors of toxic alpha-synuclein identified via cellular time-resolved FRET biosensors” (NPJ Parkinson's Disease, 2021).
Entries after “also recorded” stand apart in the source; their conditions may differ. Counter-ions that a name gives are not always drawn.

Legend:
3FY-αSN (monomeric αSN) = biological target: T1, 3FY-αSN (monomeric αSN) (Homo sapiens, UniProt P37840); experiment: Protein-observed fluorine NMR (PrOF NMR); format: binding; details: for 19F chemical shifts / resonance broadening on titration: 20 μM 3FY-αSN, compound titration
T1 construct: made in house
Experimental: PrOF NMR provides a perturbation-free method to monitor αSN conformation and structure through the incorporation of F19-labeled 3-fluoro-Tyrosine into recombinant protein[89].
Experiments were run on a Bruker 600-MHz Avance NEO (6001), equipped with a 5 mm triple resonance cryoprobe. 3FY-αSN was diluted in PBS, pH = 7.4 buffer by the addition of D2O and 0.1% trifluoroacetic acid (TFA) to final concentrations of 5 and 0.07%, respectively, in a total NMR sample volume of 150 µL. Two one-dimensional ^19F NMR spectra were taken of the protein sample at an O1P of −75 ppm, NS = 16, D1 = 1 s, and AQ = 0.5 s (TFA reference set to −75.25 ppm) and an O1P of −136 ppm, NS = 3072, D1 = 0.6 s, and AQ = 0.05 s (protein resonances). Ligand stock solutions of 1–10 mM were prepared in DMSO and titrated into the protein solutions (20 μM). As a control experiment, in a separate NMR tube, DMSO was added to a final concentration of 0.5, 0.6, 0.8, 1.5, and 2.5% to control for any solvent-induced chemical shifts. For each concentration, a TFA reference spectrum and a protein 1D-^19F NMR spectrum were acquired.
Supplemental Figure 20. PrOF NMR experiments with hit compounds and fluorinated αSN support a lack of binding to monomeric αSN. (a) 19F NMR spectrum and assignments of 3FY- αSN. The resulting spectrum is consistent with the spectrum of monomeric 3FY- αSN reported by 4. Corresponding assignments are used from that report. Stacked 19F NMR spectra with an increasing concentration of (b) Ro 90-7501 and (c) DEM HCl […]
compound binding to monomeric αSN. An exception is at high concentrations of Ro 90-7501(110 μM) a small degree of chemical shift perturbation is observed.
(1 picture or pasted object on this page, not shown here)

[1] = tested on: primary mouse hippocampal neurons treated with murine-PFF; experiment: Primary neuron model of αSN PFF pathology; format: cell-based; details: 1 µM compound, co-treatment with murine-PFF for 12 days
Excerpt: As described previously, numerous in vivo and in vitro alpha-synucleinopathy mouse models have been developed using treatment with sonicated αSN PFF to model pathology. PFF treatment of primary mouse hippocampal neurons results in neurotoxicity and increased phosphoserine-129 (pS^129) immunoreactivity, a marker for alpha-synucleinopathy pathology[87],[88]. These effects can be produced using either human-PFF or murine-PFF with the murine-PFF providing a stronger response. Primary neurons (7 days in vitro (DIV)) were treated for 12 days with murine-PFF or PBS and 1 µM hit compound or DMSO (compound vehicle). Neurons were fixed and stained for NeuN (neuronal nuclei), Map2 (neurite and neuronal morphology), and 81a (pS^129) (see Supplementary Fig. 16). […] Future studies focused on hit-to-lead optimization will focus on these nuances to resolve hit compound’s MOA.
Primary neuronal cultures were prepared from CD1 embryos on E16–18, as previously described. Primary mouse neuron protocol was approved by the University of Pennsylvania Institutional Animal Care and Use Committee. Tissue culture plates and coverslips were coated with Poly-D-lysine (Sigma) before addition of cells. Neurons were plated in 96-well plates (60,000 cells/cm^2). Cultures were maintained in Neurobasal medium supplemented with B27 and Glutamax (all from Invitrogen).
PFF treatment was performed at 7 DIV and cultures were incubated for a further 12 days prior to fixation and analysis. […] PFF concentrations are expressed as the total equivalent αSN monomer content in the preparation. […]
Cultured neurons were fixed by replacing media with warm PFA (4% in PBS containing 4% sucrose) for 15 min at RT. […] Image analysis and quantification was performed using the InCell Toolbox Analyzer software (GE Healthcare Life Sciences). The total integrated area for 81a immunopositivity was quantified for each sample and then normalized (divided) by the number of NeuN-positive objects in the fields examined.

SMILES | 19F chemical shift perturbation at high concentration (3FY-αSN (monomeric αSN); 20 µM 3FY-αSN, 110 μM compound) | 19F chemical shifts / resonance broadening on titration (3FY-αSN (monomeric αSN)) | pS129 pathology staining (81a/NeuN) [1]
Nc1ccc(-c2nc3ccc(-c4nc5ccc(N)cc5[nH]4)cc3[nH]2)cc1 [RO, Ro 90–7501] | small degree of chemical shift perturbation | no significant chemical shifts or resonance broadening | little to no effect
CN(C)[C@@H]1C(O)=C(C(N)=O)C(=O)[C@@]2(O)C(O)=C3C(=O)c4c(O)ccc(Cl)c4[C@@H](O)[C@H]3C[C@@H]12 [DEM, Demeclocycline HCl] | – | no significant chemical shifts or resonance broadening | reduced the αSN pathology; also recorded: reduces the pS^129 phenotype
COC(=O)C1=C(C)NC(C)=C([N+](=O)[O-])C1c1ccccc1C(F)(F)F (racemic) [BAY, (±)-Bay K 8644] | – | – | reduced the αSN pathology; also recorded: reduces the pS^129 phenotype
